Test results taken from patent US20070026408A1, “Materials and methods for analysis of atp-binding cassette transporter gene expression” (priority 2003, published 2007).
Counter-ions that a name gives are not always drawn.

System: abcB11
Assay: DT1 microarray drug screening, drug-treated HepG2: abcB11
Format: cell-based, human
Conditions: HepG2, vinblastine sulfate 25 nM, 8 h, standard 24
Protocol: The labelled cDNA target preparation was thawed and the 150 μl added to 850 ul hybridisation buffer (500 mM sodium Phosphate pH 6.0, 1% SDS, 1% BSA, 1 mM EDTA) in a 1.5 ml microtube and heated at 95° C. for 10 min.

CC[C@]1(O)C[C@@H]2CN(CCc3c([nH]c4ccccc34)[C@@](C(=O)OC)(c3cc4c(cc3OC)N(C)[C@H]3[C@@](O)(C(=O)OC)[C@H](OC(C)=O)[C@]5(CC)C=CCN6CC[C@]43[C@@H]65)C2)C1 [vin, vinblastine sulfate]
relative level of abcB11 gene expression: 9.053
